“Also recorded” adds a separate entry of the source. Values belong to the molecule of their own block, whether it stands above or below them.
Key:
[1] = Chemical stability in incubation medium alone; type: physicochemical; settings: fexinidazole 10 µM, Leibovitz medium alone, 120 min
Experimental: Incubations were performed in duplicate in a 48-well plate under shaking. Sampling was performed using an automatic liquid handling system (Multiprobe II EX, Packard). […] in acetonitrile (internal standard) were added, and samples centrifuged at 2000 rpm for 20 min. The supernatant was analyzed by LC-MS/MS. The chemical stability of fexinidazole was checked by incubating the compound at 37°C in the medium alone at t = 0 and 120 minutes. For the determination of phase I and phase II activity of hepatocytes, 7-ethoxycoumarin (7- […] incubated under the same conditions as fexinidazole. Aliquots of incubates were taken at 0, 10, 20, 30, 60 and 120 minutes and processed as fexinidazole samples. […] Metabolite Profile Study […] mouse, rat, dog, monkey and human hepatocytes (300000 cells/mL for the mouse and 1 million cells/mL for the other species) in a final incubation volume of 2 mL Leibovitz L-15 medium, at 37°C. Aliquots of the incubation samples were taken at t = 0, 30 and 120 minutes; the metabolism was stopped by the addition of an equal volume of cold acetonitrile and the samples centrifuged at 1500 rpm for 20 min. The supernatant was stored at -20°C until analysis. Control incubations were performed with the compound in the medium alone for 120 minutes. […] Nerviano Medical Sciences […] For the determination of phase I and phase II activities of hepatocytes, 7-ethoxycoumarin (7- […] incubated under the same conditions as fexinidazole. Aliquots of incubates were taken at 0, […] 7.5.2. Metabolite Profile Study […] pooled human hepatocytes (1 million cells/mL) in a final incubation volume of 2 mL Leibovitz L-15 medium, at 37°C. Aliquots of the incubation samples were taken at t = 0, 30 and 120 minutes; the metabolism was stopped by the addition of an equal volume of cold acetonitrile and the samples centrifuged at 1100 rpm for 20 min. The supernatant was stored at -20°C until analysis. Control incubations were performed with the compound in the medium alone for 120 minutes. […] Valco Divert Valve Step Total time (min) Position […]

[2] = Irwin's test of general behaviour and body temperature; type: in vivo, rat
Experimental: Neurobehavioural safety was carried out using the Irwin's test of general behaviour and body temperature in male rats, [41]. […] General behaviour was assessed before treatment and 2 h and 24 h after vehicle or drug administration. A defined set of behavioural observations using an arbitrary intensity scale of 0 (no behavioural change) to 8 was made before treatment and 2 h and 24 h after treatment. Factors present in normal animals (e.g. alertness, mobility) were scored as 4; potentiation or depression of these factors was indicated as higher or lower integers, respectively. Factors absent in normal animals were scored from 0 (normal) to 8.
Exp. Treatment(a) Dose Number of Session (mg/kg) Animals/Group
(a) Three animals/group were dosed each day of study.
6.3.2. Allocation/Randomization
The animals were selected and distributed into experimental groups using random number tables (Fisher and Yates).
6.3.3. Dose Administration
Route and Method Oral, gastric gavage
Dosage volumes were adjusted to the individual animal body weights recorded on the day of […]
6.3.4. Dose Justification
In this study, the top dose of […]
dose went from 500 to 1000 mg/kg/day.
6.4. Experimental procedure
6.4.1. Behavioral observations
Behavior of the animals was assessed before treatment, 2 hours and 24 hours after treatment.
After treatment, animals were put in their home cages. Observation was performed in 5 steps:
• Home cage observations: piloerection, bizarre behavior, exophthalmus, respiration, tremors, twitches, convulsions
Nerviano Medical Sciences

- % of total drug related material [1]: 18%
Structure (SMILES): Cn1c([N+](=O)[O-])cnc1COc1ccc([S+](C)[O-])cc1 (centres unmarked) [Fexinidazole sulfoxide]

Structure (SMILES): CSc1ccc(OCc2ncc([N+](=O)[O-])n2C)cc1 [Fexinidazole, 1-methyl-2-((p-(methylthio)phenoxy)methyl)-5-nitroimidazole]
- % of total drug related material [1]: about 84%
- % of total drug related material ([1]; listed as P): 82%
- Body temperature ([2]; 100 mg/kg, 2 hours): 38.3 ± 0.3 °C
- Body temperature ([2]; 100 mg/kg, 24 hours): 38.2 ± 0.3 °C
- Body temperature ([2]; 300 mg/kg, 2 hours): 38.1 ± 0.5 °C
- Body temperature ([2]; 300 mg/kg, 24 hours): 37.9 ± 0.6 °C
- Body temperature ([2]; 1000 mg/kg, 2 hours): 38.3 ± 0.3 °C
- Body temperature ([2]; 1000 mg/kg, 24 hours): 38.1 ± 0.3 °C
- effects on general behaviour and body temperature ([2]; 100, 300 or 1000 mg/kg po): no meaningful effects; also recorded: no effects were observed
- No-Observed-Effect-Level on general behavior and body temperature ([2]; single oral dose): ≥ 1000 mg/kg
